Counter-ions that a name gives are not always drawn. Like-named read-outs stand apart in the source and are kept apart here.
Tests used:
patient [1] = details: for headache side-effect of Viagra: Viagra alone; for headache side-effect of PDE-5 inhibitor: Example 4: patient, erectile dysfunction secondary to medications, hemicrania continua
Protocol: A patient with a history of migraines had difficulty sustaining an erection for long periods of time.
A patient presented with erectile dysfunction secondary to medications and hemicrania continua (a largely refractory condition consisting of a constant one-sided headache). […] They were then prescribed cafergot, a combination of ergotamine and caffeine, at a dose of 1 mg and instructed to take this with the Clalis.
A patient experienced intermittent erectile dysfunction due to stress.

patient [2] = assay: Patient case reports: alleviation of PDE-5 inhibitor headache by a co-administered agent; type: in vivo
[3] = Example 3: patient with history of migraines

Compound: CCCc1nn(C)c2c(=O)[nH]c(-c3cc(S(=O)(=O)N4CCN(C)CC4)ccc3OCC)nc12 [Viagra, sildenafil citrate]
- headache side-effect of Viagra (patient [1]; Example 1: patient, erectile dysfunction secondary to low testosterone): inability to use Viagra because of headaches
- headache side-effect of Viagra (patient [1]; Example 2: patient without erectile dysfunction): bothered by headaches
- headache side-effect of Viagra (patient [1]; [3]): intolerable headaches
- headache side-effect of PDE-5 inhibitor (patient [1]): exacerbated their headaches
- headache side-effect of Viagra (patient [1]; Example 5: patient, intermittent erectile dysfunction due to stress): could not tolerate the headache
- headache side-effect of Viagra (patient [1]; Example 6: patient with psychologic erectile dysfunction): experiencing headaches
- headache side-effect of Viagra (patient [1]; Example 7: patient): suffered from headaches

Compound: CC(=O)Nc1ccc(O)cc1 [acetaminophen]
- effect on Viagra headache (patient [2]; [3]): had no effect on the headache

Compound: CN(C)CCc1c[nH]c2ccc(Cn3cncn3)cc12 [rizatriptan]
- effect on Viagra headache (patient [2]; Example 3: 5 mg tablet of rizatriptan with the Viagra): made the headache tolerable

Compound: N[C@@H](Cc1c[nH]c2ccccc12)C(=O)O [L-tryptophan]
- prevention of Viagra headache (patient [2]; Example 6: L-tryptophan supplements the night before sexual intercourse): headache-free sex

Compound: Cn1c(=O)c2c(ncn2C)n(C)c1=O [caffeine]
- relief of Viagra headache (patient [2]; Example 1: caffeine administered prior to taking the Viagra): did not help
- relief of Viagra headache (patient [2]; Example 5: patient): did not relieve the headache

Compound: CNS(=O)(=O)Cc1ccc2[nH]cc(CCN(C)C)c2c1 [Imitrex, sumatriptan succinate]
- relief of Viagra headache (patient [2]; Example 5: Imitrex nasal spray at a dose of 25 mg): alleviated the headache to the point where they could enjoy the sex

Compound: CN1CC(=O)N2[C@H](c3ccc4c(c3)OCO4)c3[nH]c4ccccc4c3C[C@@H]2C1=O [Clalis, tadalafil]
- headache side-effect of PDE-5 inhibitor (patient [1]): exacerbated their headaches

Compound: CN[C@@H](C)[C@@H](O)c1ccccc1 [Sudafed, pseudoephedrine hydrochloride]
- relief of Viagra headache (patient [2]; Example 1: one Sudafed tablet): only minimal relief
- relief of Viagra headache (patient [2]; Example 1: two Sudafed tablets concomitantly with the Viagra): headache was still present but had abated enough to where they could enjoy the experience
- prevention of Viagra headache (patient [2]; Example 2: one Sudafed tablet with the Viagra): did not develop a headache
- relief of Viagra headache (patient [2]; Example 5: patient): did not relieve the headache

Compound: CC(C)(C)NCC(O)c1ccc(O)c(CO)c1 (centres unmarked) [albuterol]
- relief of Viagra headache (patient [2]; Example 7: two puffs of albuterol inhaler after developing a headache from the Viagra): headache was alleviated

Compound: CC(C)Cc1ccc(C(C)C(=O)O)cc1 (centres unmarked) [Ibuprofen]
- effect on Viagra headache (patient [2]; [3]): had no effect on the headache

— patent US20100104624A1, “COMBINATION THERAPY USING PHOSPHODIESTERASE INHIBITORS” (priority 2008, published 2010)
